≈ marks a conversion by molar mass, not a printed value.
What was measured:
Type in all cases: functional
Nakaseomyces glabratus = assay: Antifungal activity against Candida glabrata ATCC2001 assessed as reduction in fungal growth measured after 24 hrs by CLSI protocol based method
Candida albicans = assay: Antifungal activity against Candida albicans ATCC3147 assessed as reduction in fungal growth measured after 24 hrs by CLSI protocol based method
[Candida] auris = Antifungal activity against Candida auris MYA-500 assessed as reduction in fungal growth measured after 24 hrs by CLSI protocol based method; details: Candidozyma auris

Row | SMILES | MIC (Nakaseomyces glabratus) | MIC (Candida albicans) | MIC ([Candida] auris)
1 | CCCCCCCCCCCCNC(=O)C[C@@H]1NC(=O)CNC(=O)[C@@H](CCN)NC(=O)[C@@H]([C@H](O)c2ccc(O)cc2)NC(=O)[C@H](CO)NC(=O)C[C@@H](C[C@@H](O)[C@@H](O)[C@@H](CCCCCCCCCCC)O[C@H]2OC[C@@H](O)[C@H](O)[C@H]2O)NC(=O)[C@H]([C@H](O)C(N)=O)NC(=O)[C@@H](CO)NC1=O | 8 µg/mL (≈ 5.78 µM) | > 8 µg/mL | 
2 | CCCCCCCCCCC[C@@H](O[C@H]1OC[C@@H](O)[C@H](O)[C@H]1O)[C@H](O)[C@H](O)C[C@@H]1CC(=O)N[C@@H](CO)C(=O)N[C@H]([C@H](O)c2ccc(O)cc2)C(=O)N[C@H](CCN)C(=O)NCC(=O)N[C@@H](CC(=O)N(C)C)C(=O)N[C@H](CO)C(=O)N[C@@H]([C@H](O)C(N)=O)C(=O)N1 | 0.5 µg/mL (≈ 0.402 µM) | 1 µg/mL (≈ 0.804 µM) | 0.5 µg/mL (≈ 0.402 µM)
3 | C#CCCNC(=O)C[C@@H]1NC(=O)CNC(=O)[C@@H](CCN)NC(=O)[C@@H]([C@H](O)c2ccc(O)cc2)NC(=O)[C@H](CO)NC(=O)C[C@@H](C[C@@H](O)[C@@H](O)[C@@H](CCCCCCCCCCC)O[C@H]2OC[C@@H](O)[C@H](O)[C@H]2O)NC(=O)[C@H](CC(N)=O)NC(=O)[C@@H](CO)NC1=O | 0.5 µg/mL (≈ 0.399 µM) | 0.5 µg/mL (≈ 0.399 µM) | 
4 | CCCCCCCCCCC[C@@H](O[C@H]1OC[C@@H](O)[C@H](O)[C@H]1O)[C@H](O)[C@H](O)C[C@@H]1CC(=O)N[C@@H](CO)C(=O)N[C@H]([C@H](O)c2ccc(O)cc2)C(=O)N[C@H](CCN)C(=O)NCC(=O)N[C@@H](CC(=O)NCC)C(=O)N[C@H](CO)C(=O)N[C@@H](CC(N)=O)C(=O)N1 | 2 µg/mL (≈ 1.63 µM) | 2 µg/mL (≈ 1.63 µM) | 1 µg/mL (≈ 0.814 µM)
5 | CCCCCCCCCCC[C@@H](O[C@H]1OC[C@@H](O)[C@H](O)[C@H]1O)[C@H](O)[C@H](O)C[C@@H]1CC(=O)N[C@@H](CO)C(=O)N[C@H]([C@H](O)c2ccc(O)cc2)C(=O)N[C@H](CCN)C(=O)NCC(=O)N[C@@H](CC(N)=O)C(=O)N[C@H](CO)C(=O)N[C@@H](CC(N)=O)C(=O)N1 | 0.25 µg/mL (≈ 0.208 µM) | 0.125 µg/mL (≈ 0.104 µM) | 0.25 µg/mL (≈ 0.208 µM)
6 | CCCCCCCCCCC[C@@H](O[C@H]1OC[C@@H](O)[C@H](O)[C@H]1O)[C@H](O)[C@H](O)C[C@@H]1CC(=O)N[C@@H](CO)C(=O)N[C@H]([C@H](O)c2ccc(O)cc2)C(=O)N[C@H](CCN)C(=O)NCC(=O)N[C@@H](CC(=O)O)C(=O)N[C@H](CO)C(=O)N[C@@H](CC(N)=O)C(=O)N1 | 2 µg/mL (≈ 1.66 µM) | 2 µg/mL (≈ 1.66 µM) | 1 µg/mL (≈ 0.832 µM)
7 | CCCCCCCCCCC[C@@H](O[C@H]1OC[C@@H](O)[C@H](O)[C@H]1O)[C@H](O)[C@H](O)C[C@@H]1CC(=O)N[C@@H](CO)C(=O)N[C@H]([C@H](O)c2ccc(O)cc2)C(=O)N[C@H](CCN)C(=O)NCC(=O)N[C@@H](CC(=O)NC)C(=O)N[C@H](CO)C(=O)N[C@@H]([C@H](O)C(N)=O)C(=O)N1 | 0.5 µg/mL (≈ 0.406 µM) | 0.5 µg/mL (≈ 0.406 µM) | 0.5 µg/mL (≈ 0.406 µM)
8 | CCCCCCCCCCCCNC(=O)C[C@@H]1NC(=O)CNC(=O)[C@@H](CCN)NC(=O)[C@@H]([C@H](O)c2ccc(O)cc2)NC(=O)[C@H](CO)NC(=O)C[C@@H](C[C@@H](O)[C@@H](O)[C@@H](CCCCCCCCCCC)O[C@H]2OC[C@@H](O)[C@H](O)[C@H]2O)NC(=O)[C@H](CC(N)=O)NC(=O)[C@@H](CO)NC1=O | 8 µg/mL (≈ 5.85 µM) | > 8 µg/mL | 
9 | C#CCCNC(=O)C[C@@H]1NC(=O)CNC(=O)[C@@H](CCN)NC(=O)[C@@H]([C@H](O)c2ccc(O)cc2)NC(=O)[C@H](CO)NC(=O)C[C@@H](C[C@@H](O)[C@@H](O)[C@@H](CCCCCCCCCCC)O[C@H]2OC[C@@H](O)[C@H](O)[C@H]2O)NC(=O)[C@H]([C@H](O)C(N)=O)NC(=O)[C@@H](CO)NC1=O | 0.5 µg/mL (≈ 0.394 µM) | 0.5 µg/mL (≈ 0.394 µM) | 
10 | CCCCCCCCCCC[C@@H](O[C@H]1OC[C@@H](O)[C@H](O)[C@H]1O)[C@H](O)[C@H](O)C[C@@H]1CC(=O)N[C@@H](CO)C(=O)N[C@H]([C@H](O)c2ccc(O)cc2)C(=O)N[C@H](CCN)C(=O)NCC(=O)N[C@@H](CC(=O)NCCC)C(=O)N[C@H](CO)C(=O)N[C@@H]([C@H](O)C(N)=O)C(=O)N1 | 0.5 µg/mL (≈ 0.397 µM) | 0.5 µg/mL (≈ 0.397 µM) | 1 µg/mL (≈ 0.795 µM)
11 | CCCCCCCCCCC[C@@H](O[C@H]1OC[C@@H](O)[C@H](O)[C@H]1O)[C@H](O)[C@H](O)C[C@@H]1CC(=O)N[C@@H](CO)C(=O)N[C@H]([C@H](O)c2ccc(O)cc2)C(=O)N[C@H](CCN)C(=O)NCC(=O)N[C@@H](CC(N)=O)C(=O)N[C@H](CO)C(=O)N[C@@H]([C@H](O)C(N)=O)C(=O)N1 | 0.25 µg/mL (≈ 0.206 µM) | 0.125 µg/mL (≈ 0.103 µM) | 0.25 µg/mL (≈ 0.206 µM)
12 | CCCCCCCCCCC[C@@H](O[C@H]1OC[C@@H](O)[C@H](O)[C@H]1O)[C@H](O)[C@H](O)C[C@@H]1CC(=O)N[C@@H](CO)C(=O)N[C@H]([C@H](O)c2ccc(O)cc2)C(=O)N[C@H](CCN)C(=O)NCC(=O)N[C@@H](CC(=O)O)C(=O)N[C@H](CO)C(=O)N[C@@H]([C@H](O)C(N)=O)C(=O)N1 | 2 µg/mL (≈ 1.64 µM) | 2 µg/mL (≈ 1.64 µM) | 1 µg/mL (≈ 0.821 µM)
13 | CCCCCCCCCCC[C@@H](O[C@H]1OC[C@@H](O)[C@H](O)[C@H]1O)[C@H](O)[C@H](O)C[C@@H]1CC(=O)N[C@@H](CO)C(=O)N[C@H]([C@H](O)c2ccc(O)cc2)C(=O)N[C@H](CCN)C(=O)NCC(=O)N[C@@H](CC(=O)NCC)C(=O)N[C@H](CO)C(=O)N[C@@H]([C@H](O)C(N)=O)C(=O)N1 | 2 µg/mL (≈ 1.61 µM) | 2 µg/mL (≈ 1.61 µM) | 1 µg/mL (≈ 0.804 µM)
14 | CCCCCCCCCCC[C@@H](O[C@H]1OC[C@@H](O)[C@H](O)[C@H]1O)[C@H](O)[C@H](O)C[C@@H]1CC(=O)N[C@@H](CO)C(=O)N[C@H]([C@H](O)c2ccc(O)cc2)C(=O)N[C@H](CCN)C(=O)NCC(=O)N[C@@H](CC(=O)N(C)C)C(=O)N[C@H](CO)C(=O)N[C@@H](CC(N)=O)C(=O)N1 | 0.5 µg/mL (≈ 0.407 µM) | 1 µg/mL (≈ 0.814 µM) | 0.5 µg/mL (≈ 0.407 µM)
15 | CCCCCCCCCCC[C@@H](O[C@H]1OC[C@@H](O)[C@H](O)[C@H]1O)[C@H](O)[C@H](O)C[C@@H]1CC(=O)N[C@@H](CO)C(=O)N[C@H]([C@H](O)c2ccc(O)cc2)C(=O)N[C@H](CCN)C(=O)NCC(=O)N[C@@H](CC(=O)NC)C(=O)N[C@H](CO)C(=O)N[C@@H](CC(N)=O)C(=O)N1 | 0.5 µg/mL (≈ 0.412 µM) | 0.5 µg/mL (≈ 0.412 µM) | 0.5 µg/mL (≈ 0.412 µM)
16 | CCCCCCCCCCC[C@@H](O[C@H]1OC[C@@H](O)[C@H](O)[C@H]1O)[C@H](O)[C@H](O)C[C@@H]1CC(=O)N[C@@H](CO)C(=O)N[C@H]([C@H](O)c2ccc(O)cc2)C(=O)N[C@H](CCN)C(=O)NCC(=O)N[C@@H](CC(=O)NCCC)C(=O)N[C@H](CO)C(=O)N[C@@H](CC(N)=O)C(=O)N1 | 0.5 µg/mL (≈ 0.402 µM) | 0.5 µg/mL (≈ 0.402 µM) | 1 µg/mL (≈ 0.805 µM)

Reference: ChEMBL document CHEMBL5357035, “Previously Uncharacterized Variants, OCF-E-OCF-J, of the Antifungal Occidiofungin Produced by Burkholderia contaminans MS14” (2024)
